Laboratory results published in US9439843B2, “Oral care compositions” (Colgate-Palmolive Company, priority 2011, dated 2016).

Test: Solubility of isobutyl magnolol (statement in words)
Type: physicochemical
Settings: background statement

solubility both in water and in oil: extremely poor
SMILES: CC(C)Cc1ccc(O)c(-c2cc(CC(C)C)ccc2O)c1 [isobutyl magnolol, 5,5′-di(2-methylpropyl)-biphenyl-2,2′-diol]
